Assay: Acute toxicity in mice
Conditions: mouse, in vivo

Compound: O=C(O)CCCc1ccc(N(CCCl)CCCl)cc1 [CHLORAMBUCIL]
- LD50: 49.54 mg⁻¹ kg⁻¹

Source: ChEMBL document CHEMBL1136131, “Synthesis of poly(ethylene glycol) with sulfadiazine and chlorambucil end groups and investigation of its antitumor activity” (Bioorg Med Chem Lett, 2003)
